Experimental data reported in ChEMBL document CHEMBL4513161, “CO-ADD screening of MMV (CH) - Pandemic Response Box” (2021).

Experiments:
Staphylococcus aureus = experiment: microbe, parasite or virus in culture; settings: ATCC 43300, 18 h, ASSAY_TEST Inhibition of Bacterial Growth, detection method Absorption (OD600), MEDIA CAMHB, plate type 384well, NBS, CORNING #3640
Description: Antibacterial activity against Staphylococcus aureus MRSA ATCC 43300 (CO-ADD:GP_020); MIC in CAMBH media, using NBS plates, by OD(600)

Escherichia coli = experiment: microbe, parasite or virus in culture; settings: ATCC 25922, 18 h, ASSAY_TEST Inhibition of Bacterial Growth, detection method Absorption (OD600), MEDIA CAMHB, plate type 384well, NBS, CORNING #3640
Description: Antibacterial activity against Escherichia coli ATCC 25922 (CO-ADD:GN_001); MIC in CAMBH media using NBS plates, by OD(600)

Klebsiella pneumoniae = experiment: microbe, parasite or virus in culture; settings: ATCC 700603, 18 h, ASSAY_TEST Inhibition of Bacterial Growth, detection method Absorption (OD600), MEDIA CAMHB, plate type 384well, NBS, CORNING #3640
Description: Antibacterial activity against Klebsiella pneumoniae MDR ATCC 70063 (CO-ADD:GN_003); MIC in CAMBH media using NBS plates, by OD(600)

Candida albicans = experiment: microbe, parasite or virus in culture; settings: ATCC 90028, ASSAY_TEST Inhibition of Fungal Growth, detection method Absorption (OD530), plate type 384well, NBS, CORNING #3640
Description: Antifungal activity against Candida albicans ATCC 90028 (CO-ADD:FG_001); MIC in YNB media using NBS plates, by OD630

Acinetobacter baumannii = experiment: microbe, parasite or virus in culture; settings: ATCC 19606, 18 h, ASSAY_TEST Inhibition of Bacterial Growth, detection method Absorption (OD600), MEDIA CAMHB, plate type 384well, NBS, CORNING #3640
Description: Antibacterial activity against Acinetobacter baumannii ATCC 19606 (CO-ADD:GN_034); MIC in CAMBH media using NBS plates, by OD600

HEK293 = experiment: cells; format: functional, Homo sapiens, ATCC CRL1573; settings: Homo sapiens, ATCC CRL1573, HEK293; ASSAY_TEST Inhibition of Cell Viability; detection method Resazurin; Fluorescence (ex560/em590); MEDIA DMEM with 10% FBS; plate type 384well; TC; CORNING #3712; time 18 hr; read-out: CC50
Pseudomonas aeruginosa [1] = experiment: Antibacterial activity against Pseudomonas aeruginosa PAO397 [PAO1 d(mexAB-oprM) d(mexCD-oprJ) d(mexEF-oprN) d(mexJKL) d(mexXY) d(opmH)] (CO-ADD:GN_211); MIC in CAMBH media using NBS plates, by OD(600); format: functional; settings: ASSAY_TEST Inhibition of Bacterial Growth, detection method Absorption (OD600), MEDIA CAMHB, plate type 384well, CORNING #3640, time 18 hr
Pseudomonas aeruginosa [2] = experiment: microbe, parasite or virus in culture; settings: ATCC 27853, 18 h, ASSAY_TEST Inhibition of Bacterial Growth, detection method Absorption (OD600), MEDIA CAMHB, plate type 384well, NBS, CORNING #3640
Description: Antibacterial activity against Pseudomonas aeruginosa ATCC 27853 (CO-ADD:GN_042); MIC in CAMBH media using NBS plates, by OD(600)

Description for Cryptococcus neoformans: Antifungal activity against Cryptococcus neoformans H99 ATCC 208821 (CO-ADD:FG_002); MIC in YNB media using NBS plates, by Resazurin OD(600-570)

| Compound | MIC (Staphylococcus aureus) | MIC (Escherichia coli) | MIC (Klebsiella pneumoniae) | MIC (Candida albicans) | MIC (Acinetobacter baumannii) | CC50 (HEK293) | MIC (Pseudomonas aeruginosa [1]) | MIC (Pseudomonas aeruginosa [2]) | MIC (Cryptococcus neoformans) |
| --- | --- | --- | --- | --- | --- | --- | --- | --- | --- |
| Clc1cccc(-c2nnc(-c3ccccc3)o2)c1 | > 20 µM | > 20 µM | > 20 µM | > 20 µM | > 20 µM | > 20 µM | > 20 µM | > 20 µM | > 20 µM |
| N=C(N)c1ccc(COc2ccc(Cl)cc2)cc1 | > 20 µM | > 20 µM | > 20 µM | > 20 µM | > 20 µM | > 20 µM | > 20 µM | > 20 µM | > 20 µM |
| O=C(O)C(Cc1c[nH]c2ccccc12)N1C(=O)c2ccccc2C1=O (stereo unspecified) | > 20 µM | > 20 µM | > 20 µM | > 20 µM | > 20 µM | > 20 µM | > 20 µM | > 20 µM | > 20 µM |
| Nc1nc(F)nc2c1ncn2[C@H]1O[C@@H](CO)[C@H](O)[C@@H]1O | > 20 µM | > 20 µM | > 20 µM | > 20 µM | > 20 µM | 0.535 µM | > 20 µM | > 20 µM | > 20 µM |
| CC(C)Cn1c(=O)n(C)c(=O)c2c(-c3cncn3C)n(Cc3cccc4ccccc34)nc21 | > 20 µM | > 20 µM | > 20 µM | > 20 µM | > 20 µM | > 20 µM | > 20 µM | > 20 µM | > 20 µM |
| CCc1c(O)nc2ccc(F)cc2c1OCC1CCC1 | > 20 µM | > 20 µM | > 20 µM | > 20 µM | > 20 µM | > 20 µM | > 20 µM | > 20 µM | > 20 µM |
| Nc1nc(O)c(Br)c(-c2cccc(Cl)c2)n1 | > 20 µM | > 20 µM | > 20 µM | > 20 µM | > 20 µM | > 20 µM | > 20 µM | > 20 µM | > 20 µM |
| CC(C)Nc1ncnc2c1cnn2-c1ccc(Cl)cc1 | > 20 µM | > 20 µM | > 20 µM | > 20 µM | > 20 µM | > 20 µM | > 20 µM | > 20 µM | > 20 µM |
| O=C(Nc1ccc(Cl)c(C(F)(F)F)c1)C(CCCl)C(=O)Nc1ccc(Cl)c(C(F)(F)F)c1 | > 20 µM | > 20 µM | > 20 µM | > 20 µM | > 20 µM | > 20 µM | > 20 µM | > 20 µM | > 20 µM |
| O=C(Nc1ccccc1)N(Cc1cc(Br)ccc1O)c1ccc(F)cc1 | > 20 µM | > 20 µM | > 20 µM | > 20 µM | > 20 µM | > 20 µM | > 20 µM | > 20 µM | > 20 µM |
| Fc1ccc2c(/C=C/c3nnn[nH]3)c[nH]c2c1 | > 20 µM | > 20 µM | > 20 µM | > 20 µM | > 20 µM | > 20 µM | > 20 µM | > 20 µM | > 20 µM |
| CN(C)CCNC(=O)c1cccc2cccnc12 | > 20 µM | > 20 µM | > 20 µM | > 20 µM | > 20 µM | > 20 µM | > 20 µM | > 20 µM | > 20 µM |
| CC1=C(/C=C/C(C)=C/C=C/C(C)=C/C(=O)Nc2ccc(O)cc2)C(C)(C)CCC1 [FENRETINIDE] | > 20 µM | > 20 µM | > 20 µM | > 20 µM | > 20 µM | > 20 µM | > 20 µM | > 20 µM | > 20 µM |
| C[C@@]1(O)[C@H](O)[C@@H](CO)O[C@H]1n1ccc2c(N)ncnc21 [BETA-2'-C-METHYL-7-DEAZA-ADENOSINE] | > 20 µM | > 20 µM | > 20 µM | > 20 µM | > 20 µM | > 20 µM | > 20 µM | > 20 µM | > 20 µM |
